Source: ChEMBL document CHEMBL6120974, “Hydrazide-Based Class I Selective HDAC Inhibitors Completely Reverse Chemoresistance Synergistically in Platinum-Resistant Solid Cancer Cells” (J Med Chem, 2024)
Calls of active or inactive are those of the source. The rule behind the calls is not given here.

Experiments:
[1] = test system: A2780; assay: Induction of cell cycle arrest in human A2780 cells assessed as increase in p21 expression at 0.75 uM incubated for 48 hrs by Western blotting analysis; assay type: functional, cell-based
[2] = test system: CAL-27; assay: cells; details: Homo sapiens, CAL-27, 72 h
[3] = test system: A2780cisR; assay: Induction of DNA damage in cisplatin resistant human A2780 cisR cells assessed as increase in gammaH2AX formation at 2 uM in presence of cisplatin at 16 uM pretreated with compound for 48 hrs prior to addition of cisplatin and measured after 24 hrs by Hoechst 33342 staining based Immunofluorescence analysis; assay type: functional, cell-based; details: time 72.0 hrs
[4] = molecular target: T1, Protein deacetylase HDAC6 (Homo sapiens, UniProt Q9UBN7); assay: Inhibition of N-terminal GST-tagged full length recombinant human HDAC6 (1 to 1215 end residues) expressed in sf9 cells using ZMAL (Z-Lys(Ac)-AMC as fluorogenic substrate preincubated with compound for 60 mins followed by substrate addition and measured after 90 mins by fluorescence based microplate reader analysis
T1 sequence (Q9UBN7 whole entry): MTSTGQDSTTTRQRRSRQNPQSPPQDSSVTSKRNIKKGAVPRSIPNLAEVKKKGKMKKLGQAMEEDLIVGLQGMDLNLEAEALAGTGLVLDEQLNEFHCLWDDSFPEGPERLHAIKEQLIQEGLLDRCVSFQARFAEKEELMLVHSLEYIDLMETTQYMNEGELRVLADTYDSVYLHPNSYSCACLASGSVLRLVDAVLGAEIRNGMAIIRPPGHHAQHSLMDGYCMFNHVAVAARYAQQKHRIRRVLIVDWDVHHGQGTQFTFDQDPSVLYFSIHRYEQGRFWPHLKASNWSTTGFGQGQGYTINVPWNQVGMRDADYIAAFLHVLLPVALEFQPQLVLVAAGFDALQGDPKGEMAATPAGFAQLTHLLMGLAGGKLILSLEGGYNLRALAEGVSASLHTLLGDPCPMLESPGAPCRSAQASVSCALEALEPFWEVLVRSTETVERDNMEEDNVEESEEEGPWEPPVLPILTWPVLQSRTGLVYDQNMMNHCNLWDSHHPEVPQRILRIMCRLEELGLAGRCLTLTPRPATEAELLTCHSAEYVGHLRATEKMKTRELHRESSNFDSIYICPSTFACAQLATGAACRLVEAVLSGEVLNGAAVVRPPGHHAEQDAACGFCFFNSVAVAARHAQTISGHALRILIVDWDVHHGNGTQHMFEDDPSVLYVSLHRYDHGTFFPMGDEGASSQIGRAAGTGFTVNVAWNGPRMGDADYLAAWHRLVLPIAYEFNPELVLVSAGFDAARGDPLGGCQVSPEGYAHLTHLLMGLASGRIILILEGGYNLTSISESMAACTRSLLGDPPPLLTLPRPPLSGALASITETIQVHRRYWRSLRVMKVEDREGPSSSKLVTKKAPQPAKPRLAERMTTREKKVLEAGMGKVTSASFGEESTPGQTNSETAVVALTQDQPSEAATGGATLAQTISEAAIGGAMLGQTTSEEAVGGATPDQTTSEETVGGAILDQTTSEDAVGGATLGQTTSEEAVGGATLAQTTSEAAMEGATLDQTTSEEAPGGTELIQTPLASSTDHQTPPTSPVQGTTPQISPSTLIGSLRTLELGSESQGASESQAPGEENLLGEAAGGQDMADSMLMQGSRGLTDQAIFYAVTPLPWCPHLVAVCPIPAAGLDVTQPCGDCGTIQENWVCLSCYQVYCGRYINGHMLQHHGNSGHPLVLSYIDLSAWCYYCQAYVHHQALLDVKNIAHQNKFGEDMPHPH

[5] = test system: A2780cisR; assay: Downregulation of BAX expression in cisplatin resistant human A2780 cisR cells at 2 uM incubated for 48 hrs by Immunoblotting analysis; assay type: functional, cell-based
[6] = test system: A2780; assay: Induction of apoptosis in human A2780 cells assessed as increase in caspase 3/7 activation at 0.75 uM in presence of cisplatin preincubated with compound for 48 hrs co-treated with cisplatin and measured after 24 hrs by capase3/7 green dye based analysis; assay type: functional, cell-based; details: time 72.0 hrs
[7] = cells; details: Homo sapiens, Cal27CisR, 72 h
[8] = cells; details: Homo sapiens, A2780
[9] = cells; details: Homo sapiens, Cal27CisR
[10] = test system: A2780; assay: Downregulation of survivin expression in human A2780 cells at 0.75 uM incubated for 48 hrs by Immunoblotting analysis; assay type: functional, cell-based
[11] = test system: CAL-27; assay: Induction of apoptosis in human CAL-27 cells assessed as increase in caspase 3/7 activation at 0.316 uM in presence of cisplatin preincubated with compound for 48 hrs co-treated with cisplatin and measured after 24 hrs by capase3/7 green dye based analysis; assay type: functional, cell-based; details: time 72.0 hrs
[12] = test system: Cal27CisR; assay: Induction of apoptosis in cisplatin resistant human Cal27CisR cells assessed as caspase-3/7 activation at 0.316 uM incubated for 48 hrs by capase3/7 green dye based analysis; assay type: functional, cell-based
[13] = test system: A2780cisR; assay: Induction of apoptosis in cisplatin resistant human A2780 cisR cells assessed as increase in apoptotic nuclei at sub-G1 phase at 2 uM in presence of cisplatin at 16 uM preincubated with compound for 48 hrs prior to addition of cisplatin and measured after 24 hrs by flow cytometric analysis; assay type: functional, cell-based; details: time 72.0 hrs
[14] = test system: CAL-27; assay: Induction of apoptosis in human CAL-27 cells assessed as caspase-3/7 activation at 0.316 uM incubated for 48 hrs by capase3/7 green dye based analysis; assay type: functional, cell-based
[15] = cells; details: Homo sapiens, CAL-27
[16] = Cytotoxicity against human HEK293 cells assessed as reduction in cell viability incubated for 72 hrs by MTT assay; assay type: toxicity, cell-based
[17] = test system: A2780; assay: Induction of apoptosis in human A2780 cells assessed as caspase-3/7 activation at 2 uM incubated for 48 hrs by capase3/7 green dye based analysis; assay type: functional, cell-based
[18] = test system: A2780cisR; assay: Downregulation of survivin expression in cisplatin resistant human A2780 cisR cells at 2 uM incubated for 48 hrs by Immunoblotting analysis; assay type: functional, cell-based
[19] = test system: Cal27CisR; assay: Induction of apoptosis in cisplatin resistant human Cal27CisR cells assessed as increase in BIM expression at 0.316 uM in presence of cisplatin at 16.5 uM preincubated with compound for 48 hrs prior to addition of cisplatin and measured after 24 hrs by Immunoblotting analysis; assay type: functional, cell-based; details: time 72.0 hrs
[20] = test system: A2780cisR; assay: Induction of apoptosis in cisplatin resistant human A2780 cisR cells assessed as increase in caspase 3/7 activation at 2 uM in presence of cisplatin preincubated with compound for 48 hrs co-treated with cisplatin and measured after 24 hrs by capase3/7 green dye based analysis; assay type: functional, cell-based; details: time 72.0 hrs
[21] = test system: CAL-27; assay: Induction of apoptosis in human CAL-27 cells assessed as increase in Bcl-2 protein level at 0.316 uM in presence of cisplatin at 3 uM preincubated with compound for 48 hrs prior to addition of cisplatin and measured after 24 hrs by Immunoblotting analysis; assay type: functional, cell-based
[22] = cells; details: Homo sapiens, A2780; remark: listed apart in the source
[23] = test system: HL-60; assay: cells; details: Homo sapiens, HL-60, 72 h
[24] = test system: A2780; assay: Induction of apoptosis in human A2780 cells assessed as increase in apoptotic nuclei at sub-G1 phase at 2 uM incubated for 48 hrs by flow cytometric analysis; assay type: functional, cell-based

| IC50 [2] | IC50 [4] | IC50 [7] | IC50 [8] | IC50 [9] | IC50 [15] | Structure (SMILES) | Activity [1] | Activity [3] | Activity [5] | Activity [6] | Activity [10] | Activity [11] | Activity [12] | Activity [13] | Activity [14] | IC50 at 72 h [16] | Activity [17] | Activity [18] | Activity [19] | Activity [20] | also measured |
| --- | --- | --- | --- | --- | --- | --- | --- | --- | --- | --- | --- | --- | --- | --- | --- | --- | --- | --- | --- | --- | --- |
| 660 nM | > 10000 nM | 801 nM | 235 nM | 155 nM | 1020 nM | CCCNNC(=O)c1ccc(CN(CC(=O)NCc2ccccc2)C(=O)c2ccc(N(C)C)cc2)cc1 | Active | inactive | Active | Active | Active | Active | Active; Low Activation Observed | inactive | Active; Low Caspase Activation Observed | 1160 nM | Active; Remarkable Activation Observed | Active | Active | Active | Activity [21]: Not active; Slight Increase Observed; IC50 [22]: 115000 nM; IC50 [23]: 431 nM; Activity [24]: Active |
| 688 nM | > 3330 nM | 968 nM | 263 nM | 156 nM | 1020 nM | CCCCNNC(=O)c1ccc(CN(CC(=O)NCc2ccccc2)C(=O)c2ccc(N(C)C)cc2)cc1 | Active | inactive | Active | Active | Active | Active | Active; Low Activation Observed | inactive | Active; Low Caspase Activation Observed | 1090 nM | Active; Remarkable Activation Observed | Active | Active | Active | Activity [21]: Not active; Slight Increase Observed; IC50 [22]: 15900 nM; IC50 [23]: 474 nM; Activity [24]: Active |
